Measurements as given in patent US12559529B2, “NPY2 receptor agonists” (Boehringer Ingelheim International GmbH, priority 2019, dated 2026).
pKi: −log10 of the molar value. *1 amine or outer side, *2 acyl side, *3 side chain or, on linkers, in order; H or OH if unused. Where a SMILES comes first, the peptide text is derived from it. Side-chain parts run from the residue outwards. The star is where a group is joined. C18 diacid = O=C(O)CCCCCCCCCCCCCCCCC(=O)*; γGlu = O=C(O)[C@H](CCC(=O)[*:2])N[*:1]; Isovaleryl = CC(C)CC(=O)*; AEEA = NCCOCCOCC(=O)O

Biological target: T1, Human Neuropeptide Y2 Receptor (Homo sapiens, UniProt P49146)
T1 construct: purchased CHEMICON HTS066M
T1 sequence (P49146 1-381): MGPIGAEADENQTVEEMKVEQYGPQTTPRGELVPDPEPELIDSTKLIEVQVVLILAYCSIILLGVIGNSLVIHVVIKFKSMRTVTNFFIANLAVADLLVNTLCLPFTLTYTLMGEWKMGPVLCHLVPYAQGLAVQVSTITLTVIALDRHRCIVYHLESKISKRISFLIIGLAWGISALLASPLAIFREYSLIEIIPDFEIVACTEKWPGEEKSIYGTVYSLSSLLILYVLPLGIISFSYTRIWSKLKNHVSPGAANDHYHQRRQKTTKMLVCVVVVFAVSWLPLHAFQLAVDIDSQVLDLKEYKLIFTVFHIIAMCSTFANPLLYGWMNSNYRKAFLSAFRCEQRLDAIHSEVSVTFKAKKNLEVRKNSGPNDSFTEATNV
Experiment: Radioligand binding competition assay (RLB)
Settings: Table 3; human 125I-PYY (1-36) 0.02 nM, Y2 receptor membranes; read-out: Ki
Outline: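 Membranes from cells expressing human Y2 receptor (0.5 μg protein/well) were incubated with radioligand and serially diluted peptides in 50 mM HEPES, 5 mM MgCl2, 1 mM CaCl2, 0.2% ovalbumin, pH 7.4, for 2 h at room temperature with shaking. Bound radioactivity was collected by filtration and counted; IC50 from sigmoidal nonlinear regression.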

pKi	Structure (SMILES)
8.05	CC(C)CC(=O)N[C@@H](C)C(=O)N1CCC[C@H]1C(=O)N[C@@H](CCC(=O)O)C(=O)N[C@@H](CCCCNC(=O)COCCOCCNC(=O)COCCOCCNC(=O)CC[C@H](NC(=O)CCCCCCCCCCCCCCCCC(=O)O)C(=O)O)C(=O)N[C@@H](C)C(=O)N[C@@H](CCC(=O)O)C(=O)N[C@@H](CCC(=O)O)C(=O)N[C@@H](CC(=O)O)C(=O)N[C@@H](C)C(=O)N[C@@H](CO)C(=O)N1CCC[C@H]1C(=O)N[C@@H](CCC(=O)O)C(=O)N[C@@H](CCC(=O)O)C(=O)N[C@@H](CC(C)C)C(=O)N[C@@H](CCC(N)=O)C(=O)N[C@@H](CCC(N)=O)C(=O)N[C@@H](Cc1ccc(O)cc1)C(=O)N[C@@H](Cc1ccc(O)cc1)C(=O)N[C@H](C(=O)N[C@@H](CO)C(=O)N[C@@H](CC(C)C)C(=O)N[C@@H](CCCNC(=N)N)C(=O)N[C@@H](Cc1c[nH]cn1)C(=O)N[C@@H](Cc1ccc(O)cc1)C(=O)N[C@@H](Cc1ccc(O)cc1)C(=O)N[C@@H](CC(N)=O)C(=O)N[C@@H](Cc1c[nH]c2ccccc12)C(=O)N[C@@H](CC(C)C)C(=O)N[C@H](C(=O)N[C@@H](CCCNC(=N)N)C(=O)N[C@@H](CCC(N)=O)C(=O)N[C@@H](CCCNC(=N)N)C(=O)N[C@@H](Cc1ccc(O)cc1)C(N)=O)[C@@H](C)O)C(C)C [Compound 144, N{alpha-4}-(3-methylbutanoyl)-N{epsilon-7}-[2-(2-{2-[2-(2-{2-[(4S)-4-carboxy-4-(17-carboxyheptadecanamido)butanamido]ethoxy}ethoxy)acetamido]ethoxy}ethoxy)acetamido]-[4A,7K,8A,9E,18Q,19Q,22V,28Y,30W,31L]hPYY (4-36)] (Isovaleryl-APEK([AEEA-AEEA-γGlu-C18 diacid])AEEDASPEELQQYYVSLRHYYNWLTRQRY-NH2)
8.81	CC[C@H](C)[C@H](NC(=O)[C@H](CCC(=O)O)NC(=O)[C@H](CCC(=O)O)NC(=O)[C@@H]1CCCN1C(=O)[C@H](CO)NC(=O)[C@H](CO)NC(=O)[C@H](CC(=O)O)NC(=O)[C@H](CCC(=O)O)NC(=O)[C@H](CCC(=O)O)NC(=O)[C@@H]1CCCN1C(=O)[C@H](CCCCNC(=O)COCCOCCNC(=O)COCCOCCNC(=O)CC[C@H](NC(=O)CCCCCCCCCCCCCCCCC(=O)O)C(=O)O)NC(=O)[C@H](CCC(=O)O)NC(=O)[C@@H]1CCCN1C(=O)[C@H](C)NC(=O)CC(C)C)C(=O)N[C@@H](CCC(N)=O)C(=O)N[C@@H](CCCNC(=N)N)C(=O)N[C@@H](Cc1ccc(O)cc1)C(=O)N[C@@H](Cc1ccc(O)cc1)C(=O)N[C@H](C(=O)N[C@@H](CO)C(=O)N[C@@H](CC(C)C)C(=O)N[C@@H](CCCNC(=N)N)C(=O)N[C@@H](Cc1c[nH]cn1)C(=O)N[C@@H](Cc1ccc(O)cc1)C(=O)N[C@@H](Cc1ccc(O)cc1)C(=O)N[C@@H](CC(N)=O)C(=O)N[C@@H](Cc1c[nH]c2ccccc12)C(=O)N[C@@H](CC(C)C)C(=O)N[C@H](C(=O)N[C@@H](CCCNC(=N)N)C(=O)N[C@@H](CCC(N)=O)C(=O)N[C@@H](CCCNC(=N)N)C(=O)N[C@@H](Cc1ccc(O)cc1)C(N)=O)[C@@H](C)O)C(C)C [Compound 145, N{alpha-4}-(3-methylbutanoyl)-N{epsilon-7}-[2-(2-{2-[2-(2-{2-[(4S)-4-carboxy-4-(17-carboxyheptadecanamido)butanamido]ethoxy}ethoxy)acetamido]ethoxy}ethoxy)acetamido]-[4A,7K,9E,12S,17I,18Q,22V,28Y,30W,31L]hPYY (4-36)]
